Measurements taken from patent publication US11975111B2, “Dactinomycin compositions and methods for the treatment of myelodysplastic syndrome and acute myeloid leukemia” (Tiziana Life Sciences PLC, priority 2016, dated 2024).
*1 amine or outer side, *2 acyl side, *3 side chain or, on linkers, in order; H or OH if unused. Where a SMILES comes first, the peptide text is derived from it. Bridges are numbered along the chain shown (N, C = ends). Roman numbers before positions name the chains, in order. [ ]: non-standard residue; d: D form. Actinocin(9to1) = Cc1c2oc3c(C)ccc(C(=O)[*:1])c3nc-2c(C(=O)[*:2])c(N)c1=O; NMeV = CN[CH](C(=O)O)C(C)C; Sar = CNCC(=O)O

What was measured:
[1] = Tolerability in rats, 0.5 mg/kg IV, body weight; assay type: in vivo; details: over 7 days post treatment
Method: (§1) Free and formulated actinomycin D (0.5 mg/kg) was administered via IV
(§2) In another experiment, rats were also administered a single dose (0.5 mg/kg) of free and formulated Act D via IV (intravenous) injection.

[2] = Plasma dactinomycin (CMAX, 6 hr) in rat tolerability study, 0.5 mg/kg IV; assay type: in vivo; details: rats, comparison in words
Method: as §1, §2

NPM1-mutated AML = assay: Treatment of AML patients with dactinomycin alone or with low-dose cytarabine; assay type: in vivo, human
Method: FIG. 5 is a chart showing sequencing by the TruSight Myeloid Panel.—mutated genes (*).
FIG. 7 is a photograph of a computerized tomography (CT) scan showing pneumonitis in a subject administered dactinomycin at 15 μg/kg for 5 days.
FIGS. 9A and B are a pair of photographs depicting a bone marrow (BM) examination before and after therapy with dactinomycin alone.
Complete blood count (CBC) d=46, white blood cell 4130/mm^3, neutrophil percent (N=66%), hemoglobin (Hb)=7.7 g/dL, platelet (PLT) count 192.000/mm^3. Erythropoietin (EPO) dosage=17.8 mUl/ml (inappropriate response). Patient started on Darbopoetina.
Dactinomycin compositions of the disclosure may be administered with FLT3 inhibitors. […] There are two types of FLT3 mutations: internal tandem duplications (ITD) near the juxtamembrane domain of the receptor and point mutations in the activation loop of the tyrosine kinase domain (TKD mutations). TKD mutations comprise approximately 7% of patients, while ITD mutations are less prevalent in pediatrics and AML patients who were previously categorized as having MDS. (Fathi, A. T. et al. Eur. J. Haematol. 2017, 98: 330-336.)

[3] = system: NPM1-mutated cell line OCI/AML3; assay: Act-D induced nucleolar disintegration and apoptosis (NPM1/DAPI photographs); assay type: cell-based; details: OCI/AML3, FIG. 3
Text: NPM1=Nucleophosmin and DAPI=4′,6-diamidino-2-phenylindole—a fluorescent stain that binds strongly to A-T rich regions in DNA.

[4] = Pharmacokinetics in rats, single dose 0.3 mg/kg IV; assay type: in vivo
Method: Rats administered single dose (0.3 mg/kg) of unformulated and formulated Actinomycin D via IV injection. (FIG. 31)
Processed plasma samples at indicated times extracted in mixture of methanol and formic acid to determine total (free and encapsulated) API in systemic circulation.

[5] = cited from earlier work
p53 = assay: Western blots of p53 activation in patient tumor cells; assay type: cell-based, human; details: NPM1-mutated AML tumor cells contacted in vitro or in vivo, 2 cycles of 5 consecutive days at 12.5 μg/kg
[6] = Single dose intravenous tolerability in rats, 900 μg/kg; assay type: in vivo, Female Sprague Dawley rats; details: for clinical observations, signs of toxicity: post-dose observation
Method: A side by side comparison of the tolerability of free actinomycin D (i.e., not in a nanoparticle) and four compositions comprising actinomycin D nanoparticles (NP-ActD) formulations in rats when dosed by intravenous administration.
Female Sprague Dawley rats (HSd:SD), 6-8 weeks and 150-175 g at dosing were used for these studies. This is a single dose study with observations for 14 days post-dose. On day 1 of the study, each animal received either 900 μg/kg of the free actinomycin D or a NP-ActD formulations (900 μg/kg of the active) in a fixed volume of 1 mL/kg according to the study design in the Table below.
The following parameters were monitored: clinical observations daily, mortality, body weights, and food consumption. A full necropsy will be conducted on Day 14 post-dose, at which time organ weights and macroscopic findings will be determined. The organs will be preserved for future histology and the lungs, liver, pancreas, spleen, brain and kidneys will be frozen in liquid nitrogen for measurement of actinomycin D/NP-ActD accumulation.
Blood was collected for pharmacokinetic evaluation following dosing on Day 1 at 0.083, 0.25, 0.5, 1, 2, 6, and 24 hours post dose. Serum samples will be collected for clinical chemistry and whole blood samples for hematology.

## Cc1c2oc3c(C)ccc(C(=O)NC4C(=O)NC(C(C)C)C(=O)N5CCCC5C(=O)N(C)CC(=O)N(C)C(C(C)C)C(=O)OC4C)c3nc-2c(C(=O)NC2C(=O)NC(C(C)C)C(=O)N3CCCC3C(=O)N(C)CC(=O)N(C)C(C(C)C)C(=O)OC2C)c(N)c1=O (stereo not drawn) [dactinomycin, 2-amino-N,N′-bis(hexadecahydro-2,5,9-trimethyl-6,13-bis(1-methylethyl)-1,4,7,11,14-pentaoxo-1H-pyrrolo(2,1-I)(1,4,7,10,13)oxatetra-azacyclohexadecin-10-yl)-4,6-dimethyl-3-oxo-3H-phenoxazine-1,9-dicarboxamide] (I: TVP[Sar][NMeV] / II: TVP[Sar][NMeV]; ester I:1-I:C, II:1-II:C; linker I:N-II:N via Actinocin(9to1); configuration not given here)
[1]; listed as free API
  body weight: significant decrease in body weight
[1]; listed as free dactinomycin
  body weight: significant decrease in body weight
[1]; listed as unformulated API
  body weight: adverse effect on body weight
[2]
  CMAX, total (free and encapsulated) dactinomycin in plasma: lower
NPM1-mutated AML; Patient, FIG. 5
  mutated genes by TruSight Myeloid Panel sequencing after treatment: NMP1, IDH2 and STAG2 mutations not detected
NPM1-mutated AML; before and after therapy
  bone marrow (BM) examination after therapy: marked reduction of leukemic blast infiltration with partial normal hematopoietic recovery
NPM1-mutated AML; clinical trials, AML patients
  efficacy in clinical trials: about 60 % of the patients treated
NPM1-mutated AML; following one cycle of treatment, FIG. 8
  hematological recovery: hematological recovery
NPM1-mutated AML; subject administered 15 μg/kg for 5 days
  CT scan finding: pneumonitis
[3]
  nucleolar disintegration and apoptosis: induced nucleolar disintegration and apoptosis
[4]; extrapolated to humans
  Theoretical Cmax in Humans: 7.5 ng/mL
[4]; rat, plasma, 0.3 mg/kg, rats, IV
  Cmax: 60 ng/mL
[5]; patients showing adverse events, IV 1 mg/m^2 or 1.5 mg/m^2
  AUC0-6 hrs in patients showing adverse events: 4 mg·min/L
[5]; ratio
  AUC0-6 hrs, patients with adverse events versus without: 1.46 times higher
[5]; subjects not showing adverse events, IV 1 mg/m^2 or 1.5 mg/m^2
  AUC0-6 hrs in subjects not showing adverse events: 2.67 mg·min/L
p53
  p53 activation (Western blot): p53 activation
[6]; 13 days post-dose
  mortality rate: about 80%
[6]; Day 7 post dose, 6 rats per group
  additional animals euthanized: two
[6]; Day 9, 6 rats per group
  more animals euthanized: two
[6]; day 6 post-dose, 6 rats per group
  animals moribund and euthanized: 1 animal
[6]; rats, 900 μg/kg IV single dose, FIG. 32
  body weights: consistently decreased body weights
[6]; rats, 900 μg/kg IV single dose, listed as free Act D
  clinical observations, signs of toxicity: piloerection, decreased activity, bleeding at the nares, and hunched posture
[6]; rats, 900 μg/kg IV single dose, listed as free ActD
  clinical observations, signs of toxicity: piloerection and discolored urine
[6]; thirteen days post-dose
  animals remained: 1/6
